Test results taken from US20230271928A1, “NAPHTHYLUREA COMPOUND, METHODS OF PREPARATION AND USE THEREOF” (Henan Radiomedical Science and Technology Co., Ltd., priority 2021, published 2023).
Read-outs that look alike come from different tables or passages of the source.

Assays:
Type in all cases: cell-based
[1] = tested on: SMMC-7721 cells; assay: MTT proliferation assay, SMMC-7721; settings: Homo sapiens; SMMC-7721, MTT, 48 h
Description: (§1) Difference cell lines HepG2, SMMC-7721, HuH-7, MCF-7, MDA-MB-231, MDA-MB-468, PC9, PC9-AR, PC9-GR, Jurkat and Molt-13 were harvested during log phase; the number of the cells in an original cell suspension was counted; the original cell suspension was diluted to a density of 5×10^4 cells/mL; for a 96-well plate, 100 uL of the cell suspension was transferred to each well; DMSO is used as solvent for negative control; (2E)-3-(6-bromo-2-pyridyl)-2-cyano-N-[(1S)-1-phenylethyl]-2-acrylamide (WP1066CAS: 857064-38-1, with a formula
(§2) or gefitinib was used as a positive control; the naphthylurea compound ID1120B-1 and the phosphate ID1120B-P thereof were diluted with DMSO and added into the 96-well plate to achieve a final concentration of 0.1, 0.3, 1, 3, 10, 30, 100 and 300 μmol/L in each well; the 96-well plate was incubated for 48 h; 10 μL of MTT solvent (5 mg/mL) was added into each well; the 96-well plate was incubated at 37° C. for 4 h; a culture supernatant was discarded; 150 μL of DMSO was added into each well; the 96-well plate was shaken for 10 min on a plate shaker; an optical density (OD) of the resulting product was measured at a wavelength of 490 nm by an ELISA reader. Test results were recorded. A cell growth curve was drawn with the dosage of each compound as abscissa and the absorbance value as ordinate. The half maximum inhibition rates (IC50 value) of the cancer cells were shown in Table 1, FIGS. 1A-1J and FIGS. 2A-2J.

[2] = tested on: HepG2 cells; assay: MTT proliferation assay, HepG2; settings: Homo sapiens
Description: as §1, §2

[3] = tested on: MDA-MB-468 cells; assay: MTT proliferation assay, MDA-MB-468; settings: Homo sapiens, MDA-MB-468, MTT
Description: (§3) Test results were recorded. A cell growth curve was drawn with the dosage of each compound as abscissa and the absorbance value as ordinate.

[4] = tested on: MCF-7 cells; assay: MTT proliferation assay, MCF-7; settings: Homo sapiens
Description: as §3

[5] = tested on: MDA-MB-231 cells; assay: MTT proliferation assay, MDA-MB-231; settings: Homo sapiens; MDA-MB-231, MTT, 48 h
Description: as §3

[6] = tested on: HepG2 cells; assay: Cell cycle analysis by PI flow cytometry; settings: HepG2, 48 h
Description: HepG2 cells were harvested during log phase, digested, centrifuged and prepared into a single cell suspension; the number of the cells in the single cell suspension was counted; the cells were seeded into a 12-well plate, with 2×10^5 cells per well; three wells were used as a parallel control design; 16 hours after seeding, the cells were treated with the compounds in a concentration gradient for 48 h; the cells were digested with trypsin and resuspended; the number of the cells in the cell suspension was counted and diluted to 5×10^5 cells/mL; after the digestion was completed, the cell suspension was centrifuged; the supernatant was discarded; the pellet was washed twice with PBS (each time the mixture was centrifuged 2000 rpm for 5 min); the supernatant was discarded; a fixative comprising 980 μL of 70% cold ethanol and 20 μL of 5% BSA (a small amount of BSA reduces cellular stress and damage) was added to each microcentrifuge tube, so that the cells were fixed overnight at 4° C.; the fixative is discarded; the cells were washed three times in PBS to remove residual fixative (each time the mixture was centrifuged at 1000 rpm for 3 min); a DNA quantification kit is used to measure the content of DNA according to the following instruction (Suo Laibao, Beijing): each sample was incubated in 100 μL of RNase A at 37° C. for 30 min; 500 μL of PI (propidium iodide) was added to each sample; each sample was incubated at room temperature for 30 min in the dark; the cell cycle was analyzed by a flow cytometry and a ModFit software; and Graphpad prism 6.0 was used to estimate the percentage of a cell population in the different phases of the cell cycle.

[7] = tested on: HuH-7 cells; assay: MTT proliferation assay, HuH-7; settings: Homo sapiens; HuH-7, MTT, 48 h
Description: as §1, §2

[8] = MCF7, MCF-7, MTT, 48 h, read-out: IC50
[9] = compared with negative control (DMSO)

Structure (SMILES)	IC50 ([2]; HepG2, 48 h) [µM]	IC50 ([3]; MDA-MB-468, 48 h) [µM]	further results
O=C(NCc1ccccc1)Nc1ccc(OCc2ccc(OCCN3CCCCC3)c(Cl)c2)c2ccccc12 [ID1120C-1]	–	–	IC50 [1]: 6.75 µM
N#Cc1cc(OCCN2CCCCC2)ccc1COc1ccc(NC(=O)NCc2ccccc2)c2ccccc12 [ID1120D-1]	–	–	IC50 [1]: 6.89 µM
O=C(Nc1ccc(OCc2ccc(OCCN3CCCCC3)cc2)c2ccccc12)NC1CCCCC1 [ID1207B-1]	–	–	IC50 ([2]; 48 h): 462 µM; IC50 ([3]; 48 h): 267 µM
O=C(NCCc1ccccc1)Nc1ccc(OCc2ccc(OCCN3CCCCC3)cc2)c2ccccc12 [ID1210B-1]	–	–	IC50 ([4]; MCF7, 48 h): 8.08 µM
O=C(Nc1ccc(Cl)c(Cl)c1)Nc1ccc(OCc2ccc(OCCN3CCCCC3)cc2)c2ccccc12 [ID1214B-1]	0.88	688	IC50 [1]: 8.73 µM; IC50 [4, 8]: 88.4 µM; IC50 [5]: 114 µM; induction of cells in the G2/M phase [6, 9]: dramatically induce the liver cancer cells in the G2/M phase in a dose-dependent manner; percentage of cells in the G1/S phase [6, 9]: significantly decrease the percentage of the liver cancer cells in the G1/S phase; length of the G2 phase, % of the cell cycle, after treatment ([6]; value reached after treatment (increase from DMSO control value)): 17.54%
O=C(Nc1ccc(OCc2ccc(OCCN3CCCCC3)cc2Cl)c2ccccc12)NC1CCCCC1 [ID1215C-1]	–	–	IC50 ([3]; 48 h): 3.47 µM
O=C(Nc1ccc(OCc2ccc(OCCN3CCCCC3)cc2)c2ccccc12)NC1CCCC1 [ID1217B-1]	72.6	33.9	–
COc1ccc(NC(=O)Nc2ccc(OCc3ccc(OCCN4CCCCC4)cc3)c3ccccc23)cc1OC [ID1224C-1]	93.8	–	–
O=C(Nc1ccc(OC(F)(F)F)c(Cl)c1)Nc1ccc(OCc2ccc(OCCN3CCCCC3)cc2)c2ccccc12 [ID1229C-1]	50.3	47.5	–
O=C(Nc1ccc(F)c(F)c1)Nc1ccc(OCc2ccc(OCCN3CCCCC3)cc2)c2ccccc12 [ID210105C-1]	66.9	–	–
O=C(NCc1cccc(Cl)c1)Nc1ccc(OCc2ccc(OCCN3CCCCC3)cc2)c2ccccc12 [ID210106D-1]	5.25	–	IC50 [7]: 6.83 µM
COc1ccc(NC(=O)Nc2ccc(OCc3ccc(OCCN4CCCCC4)c(Cl)c3)c3ccccc23)cc1 [ID210110C-1]	–	6.13	–
COc1ccc(CNC(=O)Nc2ccc(OCc3ccc(OCCN4CCCCC4)cc3)c3ccccc23)cc1 [ID210113C-1]	1.31	–	IC50 [7]: 4.75 µM
O=C(NCc1ccc(Cl)c(C(F)(F)F)c1)Nc1ccc(OCc2ccc(OCCN3CCCCC3)cc2)c2ccccc12 [ID210114B-1]	3.97	–	IC50 [4, 8]: 13.2 µM
O=C(NCc1ccc(F)c(Cl)c1)Nc1ccc(OCc2ccc(OCCN3CCCCC3)cc2)c2ccccc12 [ID210115B-1]	4.65	–	IC50 [4, 8]: 39 µM
O=C(NCc1ccc(OC(F)(F)F)cc1)Nc1ccc(OCc2ccc(OCCN3CCCCC3)cc2)c2ccccc12 [ID210118D-1]	37	–	IC50 [7]: 26.5 µM
O=C(Nc1ncccc1Cl)Nc1ccc(OCc2ccc(OCCN3CCCCC3)cc2)c2ccccc12 [ID210119B-1]	26.5	26.6	–
O=C(Nc1ccc(OCc2ccc(OCCN3CCCCC3)cc2)c2ccccc12)NC1CCOCC1 [ID210127B-1]	3.5	0.736	–
S=C(NCc1ccccc1)Nc1ccc(OCc2ccc(OCCN3CCCCC3)cc2)c2ccccc12 [IY1207A-1]	–	–	IC50 [4, 8]: 24.3 µM

Structure (SMILES)	IC50 ([2]; HepG2, 48 h) [µM]	IC50 ([3]; MDA-MB-468, 48 h) [µM]	further results
O=C(Nc1ccc(OCc2ccc(OCCN3CCCCC3)cc2F)c2ccccc12)NC1CCCC1 [IY1215C-1]	–	5.36	–
O=C(Nc1ccccc1)Nc1ccc(OCc2ccc(OCCN3CCCCC3)cc2)c2ccccc12 [IY1223B-1]	–	13.2	–
COc1ccc(NC(=O)Nc2ccc(OCc3ccc(OCCN4CCCCC4)cc3)c3ccccc23)cc1Cl [IY1225B-1]	1.95	–	–
O=C(Nc1ccc(Cl)c(F)c1)Nc1ccc(OCc2ccc(OCCN3CCCCC3)cc2)c2ccccc12 [IY1229C-1]	6.43	–	–
O=C(Nc1ccc(Cl)cc1)Nc1ccc(OCc2ccc(OCCN3CCCCC3)cc2)c2ccccc12 [IY1229D-1]	–	–	IC50 ([2]; 48 h): 12.2 µM; IC50 ([3]; 48 h): 14.2 µM
O=C(Nc1ccc(Cl)cc1F)Nc1ccc(OCc2ccc(OCCN3CCCCC3)cc2)c2ccccc12 [IY210103B-1]	68.2	20.4	–
O=C(Nc1ccc(F)cc1)Nc1ccc(OCc2ccc(OCCN3CCCCC3)c(Br)c2)c2ccccc12 [IY210105A-1]	–	20.4	–
O=C(Nc1ccc(F)c(Cl)c1)Nc1ccc(OCc2ccc(OCCN3CCCCC3)cc2)c2ccccc12 [IY210105B-1]	43.8	51.4	–
COc1cc(NC(=O)Nc2ccc(OCc3ccc(OCCN4CCCCC4)cc3)c3ccccc23)ccc1F [IY210105C-1]	4.39	1.89	–
O=C(Nc1ccc(F)cc1)Nc1ccc(OCc2ccc(OCCN3CCCCC3)cc2)c2ccccc12 [IY210105D-1]	3.8	3.8	–
O=C(Nc1ccc(Cl)cc1)Nc1ccc(OCc2ccc(OCCN3CCCCC3)c(F)c2)c2ccccc12 [IY210106D-1]	–	–	IC50 ([3]; 48 h): 6.34 µM
O=C(NCc1ccc(Cl)cc1)Nc1ccc(OCc2ccc(OCCN3CCCCC3)cc2)c2ccccc12 [IY210113C-1]	3.94	–	IC50 [7]: 12.5 µM
O=C(NCc1ccc(C(F)(F)F)cc1)Nc1ccc(OCc2ccc(OCCN3CCCCC3)cc2)c2ccccc12 [IY210113D-1]	3.36	–	IC50 [7]: 13.7 µM
O=C(NCc1cc(F)cc(F)c1)Nc1ccc(OCc2ccc(OCCN3CCCCC3)cc2)c2ccccc12 [IY210115B-1]	5.77	–	IC50 [1]: 40.1 µM
O=C(NCc1ccc(F)cc1F)Nc1ccc(OCc2ccc(OCCN3CCCCC3)cc2)c2ccccc12 [IY210118B-1]	–	–	IC50 [1]: 23.6 µM
O=C(NCc1ccc(F)cc1)Nc1ccc(OCc2ccc(OCCN3CCCCC3)cc2)c2ccccc12 [IY210119B-1]	3.5	–	IC50 [1]: 0.736 µM
O=C(Nc1ccncc1)Nc1ccc(OCc2ccc(OCCN3CCCCC3)cc2)c2ccccc12 [IY210122C-1]	11	11.6	–
O=C(Nc1ccc(-c2ccccc2)cc1)Nc1ccc(OCc2ccc(OCCN3CCCCC3)cc2)c2ccccc12 [IY210128B-1]	–	62.5	–
CNC(=O)c1cc(Oc2ccc(NC(=O)Nc3ccc(Cl)c(C(F)(F)F)c3)cc2)ccn1 [Sorafenib, reference compound]	6.17	–	IC50 [1]: 30 µM; IC50 [7]: 17.6 µM
